Data: patent US6906094B2, “1,2,4-tribsubstituted benzenes as inhibitors of 15-lipoxygenase” (Warner-Lambert Company, priority 2000, dated 2005)
pIC50: −log10 of the molar value.

Columns and labels:
human 15-LO = molecular target: T1, human 15-LO (Homo sapiens, UniProt P16050); assay: Human Lysate 15-LO Assay (HUM15LO); type: biochemical; details: recombinant human 15-LO, 174 μM linoleic acid, 15 minutes at 4° C., 13-HODE quantitated
T1 construct: made in house; host or cells: Sf9 insect cells (baculovirus, Bac-to-Bac)
T1 sequence (P16050 1-662): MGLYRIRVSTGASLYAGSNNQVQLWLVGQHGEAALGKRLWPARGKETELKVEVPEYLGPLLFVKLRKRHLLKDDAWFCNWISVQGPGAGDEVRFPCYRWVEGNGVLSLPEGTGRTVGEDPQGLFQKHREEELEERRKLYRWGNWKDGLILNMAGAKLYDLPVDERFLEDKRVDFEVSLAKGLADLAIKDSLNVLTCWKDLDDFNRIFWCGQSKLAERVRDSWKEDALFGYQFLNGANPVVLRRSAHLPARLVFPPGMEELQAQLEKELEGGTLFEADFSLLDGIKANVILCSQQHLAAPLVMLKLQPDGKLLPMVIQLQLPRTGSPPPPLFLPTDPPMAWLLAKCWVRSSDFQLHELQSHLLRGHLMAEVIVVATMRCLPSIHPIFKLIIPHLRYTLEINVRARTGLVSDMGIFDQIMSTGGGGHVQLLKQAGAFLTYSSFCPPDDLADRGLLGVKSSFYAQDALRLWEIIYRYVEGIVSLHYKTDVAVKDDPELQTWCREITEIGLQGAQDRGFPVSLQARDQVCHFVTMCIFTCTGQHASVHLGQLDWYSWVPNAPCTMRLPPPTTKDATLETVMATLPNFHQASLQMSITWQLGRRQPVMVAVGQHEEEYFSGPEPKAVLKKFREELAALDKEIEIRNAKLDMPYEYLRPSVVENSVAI
Procedure: In the HUM15LO assay, a test compound of the present invention was incubated with 15-LO enzyme in the presence of the linoleic acid substrate. For example, a known amount of a test compound of the present invention, 100 μL of human 15-LO, and 174 μM linoleic acid in PBS containing 0.2% sodium cholate were incubated for 15 minutes at 4° C. The reaction was stopped with 100 μL of mobile phase and 10 μL of triethyl phosphite. […] 13-HODE was quantitated by comparing peak areas of individual samples with those from a standard curve generated using authentic 13-HODE. The test reaction is compared to a control reaction, which is identical to the test reaction except no test compound of the present invention is present Percent inhibition is calculated as the amount of 13-HODE produced by the test reaction divided by the amount of 13-HODE produced by the control reaction, expressed as a percent.
Human 15-LO was generated in a recombinant 15-lipoxygenase bacculovirus expression system, using Gibco/BRL/Life Technologies' Bac-to-Bac expression reagents; T4 DNA ligase, Kanamycin, Gentamicin, tetracycline, penicillin, streptomycin, Bluo-gal, IPTG, DH10Bac competent cells, SOC, LB medium, Sf-900 II SFM media, Sf9 insect cells, Cell Fectin, and EcoRI, BamHI and KpnI restriction enzymes.

[1] = molecular target: T2, rabbit reticulocyte 15-LO (Oryctolagus cuniculus, UniProt P12530); assay: Rabbit Reticulocyte 15-LO Assay (H15LO); type: biochemical; details: 2 U rabbit reticulocyte 15-LO, 174 μM linoleic acid, 15 minutes at 4° C., 13-HODE quantitated
T2 construct: 15-LO is obtained from phenylhydrazine-treated rabbits and purified according to the method of Rapoport; from tissue; host or cells: reticulocytes of phenylhydrazine-treated rabbits
T2 sequence (P12530 1-663): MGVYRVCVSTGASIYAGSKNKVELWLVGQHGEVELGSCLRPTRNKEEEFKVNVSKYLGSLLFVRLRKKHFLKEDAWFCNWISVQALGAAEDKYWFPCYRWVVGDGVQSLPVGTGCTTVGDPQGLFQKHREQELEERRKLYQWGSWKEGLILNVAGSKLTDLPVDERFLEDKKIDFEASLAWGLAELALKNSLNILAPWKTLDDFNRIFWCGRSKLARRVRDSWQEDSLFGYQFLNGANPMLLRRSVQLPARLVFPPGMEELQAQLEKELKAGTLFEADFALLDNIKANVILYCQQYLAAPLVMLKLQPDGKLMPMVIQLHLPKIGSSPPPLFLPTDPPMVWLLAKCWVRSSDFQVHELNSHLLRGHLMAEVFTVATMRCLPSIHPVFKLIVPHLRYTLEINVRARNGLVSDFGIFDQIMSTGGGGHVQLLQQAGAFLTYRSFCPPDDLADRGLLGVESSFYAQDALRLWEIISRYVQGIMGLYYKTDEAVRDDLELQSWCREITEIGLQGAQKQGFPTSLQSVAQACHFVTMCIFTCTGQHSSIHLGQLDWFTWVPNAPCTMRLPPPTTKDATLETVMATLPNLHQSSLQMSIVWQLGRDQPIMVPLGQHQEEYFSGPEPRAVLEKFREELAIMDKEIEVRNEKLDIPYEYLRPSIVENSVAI
Procedure: In the H15LO assay, a test compound was incubated with 15-LO enzyme in the presence of the linoleic acid substrate. For example, 2 units (U) of rabbit reticulocyte 15-LO and 174 μM linoleic acid were incubated with a known amount of a test compound of the present invention for 15 minutes at 4° C. The total reaction volume was 100 μL in phosphate buffer saline (PBS) containing 0.2% sodium cholate. The reaction was stopped with 100 μL of mobile phase and […] of triethyl phosphite. […] 13-HODE was quantitated by comparing peak areas of individual samples with those from a standard curve generated using authentic 13-HODE.
15-LO is obtained from phenylhydrazine-treated rabbits and purified according to the method of Rapoport (Rapoport et al., European Journal of Biochemistry, 1979;96:545-561).

| Structure (SMILES) | melting point | pIC50 (human 15-LO) | pIC50 [1] |
| --- | --- | --- | --- |
| COc1ccc(-c2cc3cc(F)c(F)cc3[nH]2)cc1NS(=O)(=O)NC(=O)OCCc1ccccc1 (hydrate or solvate) [Example 40, Carbamic Acid, [[[5-(5,6-difluoro-IH-indol-2-yl)-2-methoxyphenyl]amino]-sulfonyl]-2-phenylethyl ester] | 180 to 182 °C |  |  |
| COc1ccc(-c2cc3cc(F)c(F)cc3[nH]2)cc1NS(=O)(=O)NC(=O)OC(C)(C)C (hydrate or solvate) [Example 53, Carbamic Acid, [[[5-(5,6-difluoro-indol-2-yl)-2-methoxyphenyl]amino]-sulfonyl]-, 1,1-dimethylethyl ester] | 158 to 160 °C |  |  |
| COc1ccc(C(=O)Nc2ccc(F)c(F)c2)cc1NS(=O)(=O)NC(=O)Nc1ccc(C(C)(C)C)cc1 (hydrate or solvate) [Example 59, Benzamide, N-(3,4-difluorophenyl)-3-[[[[[[4-(1,1-dimethylethyl)phenyl]-amino]carbonyl]amino]sulfonyl]amino]-4-methoxy] | 199 to 202 °C |  |  |
| COc1ccc(C(=O)Nc2ccc(F)c(F)c2)cc1NS(=O)(=O)NC(=O)Nc1cccc([N+](=O)[O-])c1 (hydrate or solvate) [Example 60, Benzamide, N-(3,4-difluorophenyl)-4-methoxy-3-[[[[[(3-nitrophenyl) -amino]carbonyl]amino]sulfonyl]amino]] | 206 to 208 °C |  |  |
| COc1ccc(C(=O)Nc2ccc(F)c(F)c2)cc1NS(=O)(=O)NC(=O)Nc1cc(C(F)(F)F)cc(C(F)(F)F)c1 (hydrate or solvate) [Example 62, Benzamide, 3-[[[[[[3,5-bis(trifluoromethyl)phenyl]amino]-carbonyl]amino]-sulfonyl]amino]-N-(3,4-difluorophenyl)-4-methoxy] | 175 to 178 °C |  |  |
| COC(=O)COC(=O)NS(=O)(=O)Nc1cc(C(=O)Nc2ccc(F)c(F)c2)ccc1OC [Example 44, Acetic Acid, [[[[[[5-[[(3,4-difluorophenyl)amino]carbonyl]-2-methoxyphenyl]-amino]sulfonyl]amino]carbonyl]oxy]-, Methyl ester] | 177 to 180 °C | 6.63 |  |
| CCOCCOC(=O)NS(=O)(=O)Nc1cc(C(=O)Nc2ccc(F)c(F)c2)ccc1OC [Example 48, Carbamic Acid, [[[5[[(3,4-difluorophenyl)amino]carbonyl]-2-methoxyphenyl]amino]sulfonyl]-, 2-ethoxyethyl ester] | 179 to 182 °C | 6.51 |  |
| COc1ccc(C(=O)Nc2ccc(F)c(F)c2)cc1NS(=O)(=O)NC(=O)OC(C)(C)C [Example 58, Carbamic acid, [[[5-[[(3,4-difluorophenyl)amino]carbonyl]-2-methoxyphenyl]amino]sulfonyl]-, 1,1-dimethylethyl ester] | 193 to 194 °C | 6.12 |  |
| COc1ccc(C(=O)Nc2ccc(F)c(F)c2)cc1NS(=O)(=O)NC(=O)Nc1ccc(C(C)(C)C)cc1 [Example 59, Benzamide, N-(3,4-difluorophenyl)-3-[[[[[[4-(1,1-dimethylethyl)phenyl]-amino]carbonyl]amino]sulfonyl]amino]-4-methoxy] |  | 7.62 | 7.89 |

Other lines, results leading:

| melting point | pIC50 (human 15-LO) | pIC50 [1] | Structure (SMILES) |
| --- | --- | --- | --- |
| 158 to 163 °C |  |  | COc1ccc(-c2cc3cc(F)c(F)cc3[nH]2)cc1NS(=O)(=O)NC(=O)OCCOC(C)C (hydrate or solvate) [Example 34, Carbamic Acid, [[[5-(5,6-difluoro-IH-indol-2-yl)-2-methoxyphenyl]amino]-sulfonyl]-2(1-methylethoxy)ethyl Ester] |
| 160 to 164 °C |  |  | COc1ccc(C(=O)Nc2ccc(F)c(F)c2)cc1NS(=O)(=O)NC(=O)OCCCc1ccncc1 (hydrate or solvate) [Example 39, Carbamic Acid, [[[5-[[(3,4-difluorophenyl)amino]carbonyl]-2-methoxyphenyl]amino]sulfonyl]-, 3-(4-pyridinyl)propyl ester] |
| 173 to 177 °C |  |  | COc1ccc(C(=O)Nc2ccc(F)c(F)c2)cc1NS(=O)(=O)NC(=O)OCCc1ccccc1 (hydrate or solvate) [Example 41] |
| 190 to 192 °C |  |  | COC(=O)COC(=O)NS(=O)(=O)Nc1cc(-c2cc3cc(F)c(F)cc3[nH]2)ccc1OC (hydrate or solvate) [Example 43, Acetic Acid, [[[[[[5-(5,6-difluoro-1H-indol-2-yl)-2-methoxyphenyl]amino]-sulfonyl]amino]carbonyl]oxy]-, Methyl ester] |
| 188 to 190 °C |  |  | COc1ccc(C(=O)Nc2ccc(F)c(F)c2)cc1NS(=O)(=O)NC(=O)OCC(C)C [Example 23, Carbamic Acid, [[(5-[[(3,4-difluorophenyl)amino]carbonyl]-2-methoxyphenyl]amino]sulfonyl]-, 2-methylpropyl ester] |
| 178 to 179 °C | 6.08 |  | COc1ccc(C(=O)Nc2ccc(F)c(F)c2)cc1NS(=O)(=O)NC(=O)OCCCO [Example 46, Carbamic Acid, [[[5-[[(3,4-difluorophenyl)amino]carbonyl]-2-methoxyphenyl]amino]sulfonyl]-, 3-hydroxypropyl ester] |
| 203 to 205 °C | 6.47 |  | COc1ccc(C(=O)Nc2ccc(F)c(F)c2)cc1NS(=O)(=O)NC(=O)OCCN1C(=O)c2ccccc2C1=O [Example 56, Carbamic Acid, [[[5-[[(3,4-difluorophenyl)amino]carbonyl]-2-methoxyphenyl]amino]sulfonyl]-, 2-(1,3-dihydro-1,3-dioxo-2H-isoindol-2-yl)ethyl ester] |
|  | 6.56 | 7.52 | COc1ccc(C(=O)Nc2ccc(F)c(F)c2)cc1NS(=O)(=O)NC(=O)Nc1ccc(C(=O)O)cc1 [Example 65, Benzoic Acid, 4-[[[[[[5-[[(3,4-difluorophenyl)amino]carbonyl]-2-methoxyphenyl]amino]sulfonyl]amino]carbonyl]amino]] |
|  | 6.65 | 7.29 | COc1ccc(NC(=O)NS(=O)(=O)Nc2cc(C(=O)Nc3ccc(F)c(F)c3)ccc2OC)cc1 [Example 66, Benzamide, N-(3,4-difluorophenyl)-4-methoxy-3-[[[[[(4-methoxyphenyl)-amino]carbonyl]amino]sulfonyl]amino]] |
